Source: paper PMC10952195, “A single coiled‐coil domain mutation in hIKCa channel subunits disrupts preferential formation of heteromeric hSK1:hIKCa channels” (The European Journal of Neuroscience, 2023)
“Also recorded” adds a separate entry of the source. Like-named read-outs stand apart in the source and are kept apart here. Ends that are not written are not given here.

How the values were obtained:
[1] = target: T1, hIKCa channel (Homo sapiens, UniProt O15554); test: Ca2+ activation of ramp currents, inside-out macropatches, homomeric hIKCa; assay type: cell-based
T1 construct: expressed in transfected cells; host or cells: tsA201 cells
T1 sequence (O15554 whole entry): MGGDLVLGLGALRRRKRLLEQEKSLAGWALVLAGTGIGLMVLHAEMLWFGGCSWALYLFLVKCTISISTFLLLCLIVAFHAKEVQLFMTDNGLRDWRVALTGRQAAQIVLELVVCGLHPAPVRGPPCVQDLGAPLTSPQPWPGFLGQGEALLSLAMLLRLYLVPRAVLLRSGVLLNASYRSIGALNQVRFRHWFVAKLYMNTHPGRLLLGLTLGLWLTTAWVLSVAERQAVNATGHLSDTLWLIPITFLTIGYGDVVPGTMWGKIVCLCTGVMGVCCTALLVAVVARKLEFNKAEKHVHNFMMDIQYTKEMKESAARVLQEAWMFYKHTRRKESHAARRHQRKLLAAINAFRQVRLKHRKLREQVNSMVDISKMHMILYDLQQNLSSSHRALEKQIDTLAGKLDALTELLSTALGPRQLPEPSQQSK
Protocol: (§1) TsA201 cells were maintained in culture at 37°C and 5% CO2, being grown in culture flasks with Dulbecco's Modified Eagle Medium (DMEM) supplemented with foetal bovine serum (10%) and penicillin and streptomycin (1%). Cells were passaged at ~80% confluence. The cDNA of KCa channel subunits and one encoding expression of enhanced green fluorescent protein (eGFP) (using pcDNA3.1 or equivalent vectors) were transfected into tsA201 cells using polyethylenimine (PEI) (Merck/Sigma, UK) at a concentration of 0.2 mg/mL (Higham et al., [2019]). Cells were used 48 h after transfection. All mutations were carried out using QuikChange II XL (Stratagene).
(§2) Sensitivity of expressed channels to Ca^2+ was assessed using inside‐out macropatches excised from eGFP‐positive cells, using electrodes of resistance 1–3 MΩ. A range of free Ca^2+ concentrations was used, from 30 nM to 3 μM in half log10 increments. We used external solution to bath inside‐out patches, with the free Ca^2+ concentration calculated to maintain free Mg^2+ at 1 mM. Solutions were designed using REACT, with pH adjusted to 7.4 and osmolarity between 280 and 310 mOsm.

[2] = tested on: SK channels native to CA1 hippocampal neurons; parameters: method as in Hirschberg et al., 1999; settings: ref Hirschberg et al., 1999; read-out: EC50 for activation of SK channels native to CA1 hippocampal neurons; cited from earlier work
[3] = tested on: hSK1 channel; test: Ca2+ activation of ramp currents, inside-out macropatches, homomeric hSK1; assay type: cell-based, human
Protocol: as §1, §2

[4] = target: T2, heteromeric hSK1:hIKCa channel (Homo sapiens, UniProt O15554+Q92952); test: Ca2+ activation of ramp currents, inside-out macropatches, heteromeric hSK1:hIKCa; assay type: cell-based
T2 construct: expressed in transfected cells; host or cells: tsA201 cells
T2 sequence (O15554 whole entry): as above
T2 sequence (Q92952 other isoform, or with tags, fused parts or gaps): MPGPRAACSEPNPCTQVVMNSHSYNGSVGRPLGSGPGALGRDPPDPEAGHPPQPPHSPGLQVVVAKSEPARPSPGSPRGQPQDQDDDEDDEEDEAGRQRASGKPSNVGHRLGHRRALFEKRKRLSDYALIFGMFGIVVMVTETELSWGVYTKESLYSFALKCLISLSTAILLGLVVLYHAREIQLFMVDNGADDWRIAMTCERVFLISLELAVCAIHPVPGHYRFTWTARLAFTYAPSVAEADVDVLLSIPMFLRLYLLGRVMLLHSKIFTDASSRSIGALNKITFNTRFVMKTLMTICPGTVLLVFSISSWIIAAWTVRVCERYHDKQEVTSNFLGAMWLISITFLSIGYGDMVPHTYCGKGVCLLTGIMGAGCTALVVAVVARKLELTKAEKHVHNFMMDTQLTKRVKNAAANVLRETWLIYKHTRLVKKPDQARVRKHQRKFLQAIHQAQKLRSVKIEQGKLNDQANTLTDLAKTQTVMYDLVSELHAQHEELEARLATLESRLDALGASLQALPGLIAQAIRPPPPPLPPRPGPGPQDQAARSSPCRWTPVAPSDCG
Protocol: as §1, §2

[5] = target: T3, hIKCa (WT) channel (Homo sapiens, UniProt O15554); test: Outside-out patch current inhibition, homomeric wildtype hIKCa expressed in tsA201 cells; assay type: cell-based
T3 construct: expressed in transfected cells; host or cells: tsA201 cells
T3 sequence (O15554 whole entry): as the sequence (O15554 whole entry) above
Protocol: as §1
(§3) Outside‐out patches were excised from eGFP‐positive cells, pulled from thick‐walled (1.5 mm OD × 0.86 mm ID) borosilicate glass capillaries (Harvard Apparatus, UK), fire‐polished and filled with internal solution containing in mM: 97 K aspartate, 20 KCl, 1.5 Na2ATP, 10 EGTA, 9.65 CaCl2 (1 μM free Ca^2+), 10 HEPES Na, 2.5 MgCl2 (pH 7.4 and osmolarity between 280 and 310 mOsm). […] Free Ca^2+ concentrations were calculated using REACT (University of Strathclyde). […] Current was measured using an Axopatch 200A amplifier, low‐pass filtered (cut off 1 kHz, Bessel, Frequency Devices) and acquired at 10 kHz (Pulse, HEKA). […]

[6] = target: T2, heteromeric hSK1:hIKCa channel; settings: ref Higham et al., 2019, Church et al.; cited from earlier work
[7] = tested on: hSK1[S348T + A371V] channel; test: Outside-out patch current inhibition, homomeric pore mutant hSK1[S348T + A371V]; assay type: cell-based, human
Protocol: as §1, §3

[8] = tested on: hSK1 channel; parameters: method as in Higham et al., 2019; settings: ref Higham et al., 2019; cited from earlier work
[9] = tested on: slow AHP of hippocampal neurons; settings: ref King et al., 2015, Shah & Haylett, 2000, Church et al., 2019, Higham et al.; cited from earlier work
[10] = target: hSK1[S348T + A371V]:hIKCa heteromeric channel (Homo sapiens, UniProt O15554+Q92952, A355V/S330T); test: Outside-out patch current inhibition, heteromeric hSK1[S348T + A371V]:hIKCa; assay type: cell-based
Sequence of hSK1[S348T + A371V]:hIKCa heteromeric channel (O15554 whole entry): as above
Sequence of hSK1[S348T + A371V]:hIKCa heteromeric channel (Q92952 whole entry S330T/A355V): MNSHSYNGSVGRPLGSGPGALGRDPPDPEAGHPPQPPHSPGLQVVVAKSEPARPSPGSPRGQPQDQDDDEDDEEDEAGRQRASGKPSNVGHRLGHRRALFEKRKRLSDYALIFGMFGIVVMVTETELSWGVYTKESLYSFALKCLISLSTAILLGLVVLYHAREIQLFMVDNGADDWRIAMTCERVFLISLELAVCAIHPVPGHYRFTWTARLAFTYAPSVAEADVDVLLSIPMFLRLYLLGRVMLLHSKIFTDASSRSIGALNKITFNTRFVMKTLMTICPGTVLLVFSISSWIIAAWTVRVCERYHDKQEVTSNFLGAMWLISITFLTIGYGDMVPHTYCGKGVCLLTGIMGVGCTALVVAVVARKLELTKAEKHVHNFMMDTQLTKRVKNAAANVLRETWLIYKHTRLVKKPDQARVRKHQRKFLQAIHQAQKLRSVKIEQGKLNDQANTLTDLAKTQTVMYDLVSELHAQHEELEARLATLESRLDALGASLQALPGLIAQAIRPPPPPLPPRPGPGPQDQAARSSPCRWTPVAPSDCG
Protocol: as §1, §3

[11] = target: T2, heteromeric hSK1:hIKCa channel; test: Outside-out patch current inhibition, heteromeric wildtype hSK1:hIKCa expressed in tsA201 cells; assay type: cell-based; settings: for extent of inhibition of heteromeric hSK1:hIKCa current: concentration-inhibition relationship
Protocol: as §1
(§4) Outside‐out patches were excised from eGFP‐positive cells, pulled from thick‐walled (1.5 mm OD × 0.86 mm ID) borosilicate glass capillaries (Harvard Apparatus, UK), fire‐polished and filled with internal solution containing in mM: 97 K aspartate, 20 KCl, 1.5 Na2ATP, 10 EGTA, 9.65 CaCl2 (1 μM free Ca^2+), 10 HEPES Na, 2.5 MgCl2 (pH 7.4 and osmolarity between 280 and 310 mOsm). Cells were bathed in, and patches excised into, an external solution containing in mM: 97 K Aspartate, 30 KCl, 10 HEPES Na^+, 6.19 CaCl2 (1 μM free Ca^2+), 1.44 MgCl2 (pH 7.4, 280–310 mOsm). Free Ca^2+ concentrations were calculated using REACT (University of Strathclyde). […] Current was measured using an Axopatch 200A amplifier, low‐pass filtered (cut off 1 kHz, Bessel, Frequency Devices) and acquired at 10 kHz (Pulse, HEKA). All recordings were made at room temperature. Apamin (Sigma‐Aldrich, UK), 6,12,19,20,25,26‐hexahydro‐5,27:13,18:21,24‐trietheno‐11,7‐metheno‐7H‐dibenzo [b,n] […] UCL1684 was dissolved at a stock concentration of 100 μM in DMSO, and aliquots were stored at −20°C. Finally, apamin was dissolved in distilled water at a stock concentration of 100 μM, and aliquots were stored at −20°C. All compounds were defrosted on the day of recording, with aliquots only thawed once, and desired concentrations were prepared by dilution in external solution.
(§5) Biphasic concentration–inhibition relationships were fitted using the following equation: I/Icontrol=Amin+Afrac−Amin/1+10^LogIC50,a−X×nH,a +Amax−Amin/1+10^LogIC50,b−X×nH,b where A frac is current amplitude at the maximum of the high‐sensitivity component I frac /I cont , IC 50,a is the IC50 of the high‐sensitivity component, n H,a is the Hill coefficient of the high‐sensitivity component, IC 50,b is the IC50 of the low‐sensitivity component, and n H,b is the Hill coefficient of the low‐sensitivity component. […] Statistical significance was determined using appropriate tests that are stated in the figure legend.

[12] = target: hSK1:hIKCa[H389E] channels (Homo sapiens, UniProt O15554+Q92952, H389E); test: Outside-out patch current inhibition, cells co-expressing hSK1 and hIKCa[H389E]; assay type: cell-based
Sequence of hSK1:hIKCa[H389E] channels (Homo sapiens, UniProt O15554+Q92952, H389E) (O15554 whole entry H389E): as the sequence (O15554 whole entry) above, with H389E counted along it
Sequence of hSK1:hIKCa[H389E] channels (Homo sapiens, UniProt O15554+Q92952, H389E) (Q92952 whole entry): as the sequence (Q92952 whole entry S330T/A355V) above, with T330S, V355A counted along it
Protocol: as §1, §4, §5

[13] = target: T4, hIKCa[H389E] channel (Homo sapiens, UniProt O15554, H389E); test: Outside-out patch current inhibition, homomeric hIKCa[H389E]; assay type: cell-based; settings: TRAM-34 10 μM
T4 construct: expressed in transfected cells; host or cells: tsA201 cells
T4 sequence (O15554 whole entry H389E): as the sequence (O15554 whole entry) above, with H389E counted along it
Protocol: as §1, §3

[14] = tested on: hSK1 channel; test: Outside-out patch current inhibition, homomeric hSK1; assay type: cell-based, human
Protocol: as §1
Outside‐out patches were excised from eGFP‐positive cells, pulled from thick‐walled (1.5 mm OD × 0.86 mm ID) borosilicate glass capillaries (Harvard Apparatus, UK), fire‐polished and filled with internal solution containing in mM: 97 K aspartate, 20 KCl, 1.5 Na2ATP, 10 EGTA, 9.65 CaCl2 (1 μM free Ca^2+), 10 HEPES Na, 2.5 MgCl2 (pH 7.4 and osmolarity between 280 and 310 mOsm). Cells were bathed in, and patches excised into, an external solution containing in mM: 97 K Aspartate, 30 KCl, 10 HEPES Na^+, 6.19 CaCl2 (1 μM free Ca^2+), 1.44 MgCl2 (pH 7.4, 280–310 mOsm). Free Ca^2+ concentrations were calculated using REACT (University of Strathclyde). […] Current was measured using an Axopatch 200A amplifier, low‐pass filtered (cut off 1 kHz, Bessel, Frequency Devices) and acquired at 10 kHz (Pulse, HEKA). […]
as §5

[15] = tested on: hSK1:hIKCa[H389E] channels; test: Outside-out patch current inhibition, cells co-expressing hSK1 and hIKCa[H389E]; assay type: cell-based, human; settings: biphasic fit, hSK1:hIKCa[H389E]-mediated current
Protocol: as §1, §4, §5

[16] = concentration-inhibition relationship

[Ca+2] [Ca^2+]
activity of homomeric hIKCa channels at 100 nM Ca2+ ([1]; 100 nM Ca2+): 10%
nH for activation of homomeric hIKCa-mediated ramp currents ([1]; inside-out patches): 4.10 ± 0.57
EC50 ([1]; inside-out patches, tsA201 cells, read-out: EC50 for activation of homomeric hIKCa-mediated ramp currents): 0.409 ± 0.0153 µM
EC50 [2]: 0.56 µM
activity of homomeric hSK1 channels at 100 nM Ca2+ ([3]; 100 nM Ca2+): inactive
nH for activation of homomeric hSK1-mediated current ([3]; inside-out patches): 5.26 ± 0.82
EC50 ([3]; inside-out patches, tsA201 cells, read-out: EC50 for activation of homomeric hSK1-mediated current): 0.531 ± 0.078 µM
activity of heteromeric hSK1:hIKCa channels at 100 nM Ca2+ ([4]; 100 nM Ca2+): inactive
nH for activation of heteromeric hSK1:hIKCa-mediated ramp currents ([4]; inside-out patches): 3.93 ± 0.29
EC50 ([4]; inside-out patches, tsA201 cells, read-out: EC50 for activation of heteromeric hSK1:hIKCa-mediated ramp currents): 0.613 ± 0.0276 µM

Clc1ccccc1C(c1ccccc1)(c1ccccc1)n1cccn1 [TRAM‐34, 1‐[(2‐chlorophenyl)diphenylmethyl]‐1H‐pyrazole]
extent of inhibition of homomeric hIKCa-mediated current [5, 16]: fully inhibited
inhibition at 10 µM ([5]; tsA201, TRAM-34 10 μM, read-out: inhibition of hIKCa (WT)-mediated current): 87 ± 2.6%
sensitivity of hSK1:hIKCa channel current [6]: sensitive
extent of block of hSK1[S348T + A371V]-mediated current ([7]; TRAM-34 10 μM): fully blocked
effect on wildtype hSK1-mediated current [8]: insensitive; also recorded: does not affect
sensitivity of the slow AHP [9]: sensitive
extent of inhibition of hSK1[S348T + A371V]:hIKCa current ([10]; TRAM-34 10 μM): fully sensitive
extent of inhibition of heteromeric hSK1:hIKCa current [11]: sub‐maximal inhibition
extent of inhibition of hSK1:hIKCa[H389E] current [12, 16]: only partially inhibited
block of hIKCa[H389E]-mediated current [13]: 83.7 ± 2.0%

[Br-].[Br-].c1cc2cc(c1)C[n+]1ccc(c3ccccc31)NCc1ccc(cc1)CNc1cc[n+](c3ccccc13)C2 [UCL1684, 6,12,19,20,25,26‐hexahydro‐5,27:13,18:21,24‐trietheno‐11,7‐metheno‐7H‐dibenzo [b,n] [1,5,12,16]tetraazacyclotricosine‐5,13‐diium dibromide]
extent of inhibition of homomeric hSK1-mediated current [14, 16]: maximally inhibited
difference in sensitivity between homomeric hSK1-mediated and heteromeric hSK1:hIKCa-mediated current ([14]; hSK1 versus hSK1:hIKCa): < 200 fold
IC50 ([14]; outside-out patches, tsA201 cells, maximal inhibition, read-out: IC50 for inhibition of homomeric hSK1-mediated current): 0.000783 ± 0.00038 µM
extent of inhibition of heteromeric hSK1:hIKCa current [11]: sub‐maximally inhibited
IC50 ([11]; outside-out patches, tsA201 cells, 1 μM free Ca2+, sub-maximal inhibition, read-out: IC50 for inhibition of heteromeric hSK1:hIKCa (WT) current): 0.236 ± 0.082 µM
nH(a) of the high-sensitivity component [15]: 0.910 ± 0.02
nH(b) of the low-sensitivity component [15]: 0.930 ± 0.1
IC50 ([15]; read-out: IC50(a) of the high-sensitivity component): 0.000511 ± 2e-07 µM
IC50 ([15]; read-out: IC50(b) of the low-sensitivity component): 0.301 ± 0.0846 µM
maximal inhibition of hSK1:hIKCa[H389E]-mediated current ([12]; two component concentration-inhibition curve): 50.9 ± 12.5%

apamin: SK channel inhibitor; negative allosteric inhibitor for SK1–3 channels (CNCKAPETALCARRCQQH; not fully specified (C-terminus, bridges); cysteine pairing not given here; UniProt P01500 28-45, looked up)
sensitivity of hSK1:hIKCa channel current [6]: insensitive
extent of inhibition of hSK1[S348T + A371V] current ([7]; apamin 100 nM): completely inhibited
sensitivity of the slow AHP [9]: insensitive
sensitivity of hSK1[S348T + A371V]:hIKCa current ([10]; apamin 100 nM): insensitive
effect on current from cells co-expressing wildtype hSK1 and hIKCa ([11]; apamin 100 nM): had no effect
reduction of current amplitude, cells co-expressing hSK1 and hIKCa[H389E] ([12]; apamin 100 nM): 17.3 ± 1.8%

charybdotoxin
sensitivity of hSK1:hIKCa channel current [6]: sensitive
sensitivity of the slow AHP [9]: sensitive
